Patent US11542240B2, “STK19 inhibitors for treatment of cancer” (TRUSTEES OF BOSTON UNIVERSITY, priority 2018, dated 2023)

Tests used:
Test in all cases: biochemical
Format in all cases: binding
[1] = target: panel of 468 diverse kinases (Plasmodium falciparum, UniProt P62344); conditions: read-out: Percent Control
[2] = target: panel of 468 diverse kinases (Homo sapiens, UniProt P31152); conditions: ERK4; 1000 nM; read-out: Percent Control
[3] = target: panel of 468 diverse kinases (Homo sapiens, UniProt O94804); conditions: LOK; 1000 nM; read-out: Percent Control
[4] = target: panel of 468 diverse kinases (Homo sapiens, UniProt Q9UPZ9); conditions: ICK; 1000 nM; read-out: Percent Control
[5] = target: panel of 468 diverse kinases (Homo sapiens, UniProt Q99640); conditions: PKMYT1; 1000 nM; read-out: Percent Control
[6] = target: panel of 468 diverse kinases (Homo sapiens, UniProt P42679); conditions: CTK; 1000 nM; read-out: Percent Control
[7] = target: panel of 468 diverse kinases (Homo sapiens, UniProt P27037); conditions: ACVR2A; 1000 nM; read-out: Percent Control
Chain of panel of 468 diverse kinases (Homo sapiens, UniProt P27037) (P27037 20-513 limits assumed): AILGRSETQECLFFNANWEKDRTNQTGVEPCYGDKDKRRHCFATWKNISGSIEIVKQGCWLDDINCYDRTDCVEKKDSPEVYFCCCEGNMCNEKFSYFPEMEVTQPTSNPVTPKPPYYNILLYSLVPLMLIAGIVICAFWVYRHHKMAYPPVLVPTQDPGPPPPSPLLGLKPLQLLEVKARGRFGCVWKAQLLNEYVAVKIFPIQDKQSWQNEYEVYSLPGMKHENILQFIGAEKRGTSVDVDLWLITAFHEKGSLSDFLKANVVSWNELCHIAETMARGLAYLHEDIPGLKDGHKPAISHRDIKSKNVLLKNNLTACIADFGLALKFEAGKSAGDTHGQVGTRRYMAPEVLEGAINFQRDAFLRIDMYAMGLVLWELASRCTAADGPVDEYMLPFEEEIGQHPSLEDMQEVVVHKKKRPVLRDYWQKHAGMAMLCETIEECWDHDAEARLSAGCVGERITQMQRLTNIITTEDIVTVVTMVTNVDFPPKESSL

[8] = target: panel of 468 diverse kinases (Homo sapiens, UniProt P80192); conditions: MLK1; 1000 nM; read-out: Percent Control
[9] = target: panel of 468 diverse kinases (Homo sapiens, UniProt Q8IWQ3); conditions: BRSK2; 1000 nM; read-out: Percent Control
[10] = target: panel of 468 diverse kinases (Homo sapiens, UniProt Q92918); conditions: HPK1; 1000 nM; read-out: Percent Control
[11] = target: panel of 468 diverse kinases (Homo sapiens, UniProt Q8IY84); conditions: NIM1; 1000 nM; read-out: Percent Control
[12] = target: panel of 468 diverse kinases (Homo sapiens, UniProt P22607); conditions: FGFR3; 1000 nM; read-out: Percent Control
[13] = target: panel of 468 diverse kinases (Homo sapiens, UniProt Q5S007, G2019S); conditions: LRRK2(G2019S); 1000 nM; read-out: Percent Control
[14] = target: panel of 468 diverse kinases (Homo sapiens, UniProt Q7L7X3); conditions: TAOK1; 1000 nM; read-out: Percent Control
[15] = target: panel of 468 diverse kinases (Homo sapiens, UniProt Q9UPE1); conditions: SRPK3; 1000 nM; read-out: Percent Control
[16] = target: panel of 468 diverse kinases (Homo sapiens, UniProt Q13557); conditions: CAMK2D; 1000 nM; read-out: Percent Control
Chain of panel of 468 diverse kinases (Homo sapiens, UniProt Q13557) (Q13557 2-499 limits assumed): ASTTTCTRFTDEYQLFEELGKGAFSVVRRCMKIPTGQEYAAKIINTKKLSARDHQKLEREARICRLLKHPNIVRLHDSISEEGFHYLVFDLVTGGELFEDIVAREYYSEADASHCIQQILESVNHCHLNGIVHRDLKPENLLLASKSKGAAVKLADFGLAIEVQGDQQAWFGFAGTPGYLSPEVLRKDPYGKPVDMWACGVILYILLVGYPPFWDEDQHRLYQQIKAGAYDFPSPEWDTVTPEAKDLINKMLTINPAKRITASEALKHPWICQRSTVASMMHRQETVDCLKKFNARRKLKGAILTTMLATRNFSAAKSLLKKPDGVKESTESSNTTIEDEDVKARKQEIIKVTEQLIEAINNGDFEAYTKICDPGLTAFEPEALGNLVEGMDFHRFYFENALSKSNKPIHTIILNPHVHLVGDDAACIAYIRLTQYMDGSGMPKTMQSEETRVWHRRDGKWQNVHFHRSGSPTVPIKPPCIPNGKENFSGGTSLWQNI

[17] = target: panel of 468 diverse kinases (Homo sapiens, UniProt Q86UE8); conditions: TLK2; 1000 nM; read-out: Percent Control
[18] = target: panel of 468 diverse kinases (Homo sapiens, UniProt Q9NRH2); conditions: SNRK; 1000 nM; read-out: Percent Control
[19] = target: panel of 468 diverse kinases (Homo sapiens, UniProt P07949); conditions: RET; 1000 nM; read-out: Percent Control
[20] = target: panel of 468 diverse kinases (Homo sapiens, UniProt Q9BRS2); conditions: RIOK1; 1000 nM; read-out: Percent Control
[21] = target: panel of 468 diverse kinases (Homo sapiens, UniProt P10721, D816H); conditions: KIT(D816H); 1000 nM; read-out: Percent Control
Chain of panel of 468 diverse kinases (Homo sapiens, UniProt P10721, D816H) (P10721 26-976 D816H limits assumed): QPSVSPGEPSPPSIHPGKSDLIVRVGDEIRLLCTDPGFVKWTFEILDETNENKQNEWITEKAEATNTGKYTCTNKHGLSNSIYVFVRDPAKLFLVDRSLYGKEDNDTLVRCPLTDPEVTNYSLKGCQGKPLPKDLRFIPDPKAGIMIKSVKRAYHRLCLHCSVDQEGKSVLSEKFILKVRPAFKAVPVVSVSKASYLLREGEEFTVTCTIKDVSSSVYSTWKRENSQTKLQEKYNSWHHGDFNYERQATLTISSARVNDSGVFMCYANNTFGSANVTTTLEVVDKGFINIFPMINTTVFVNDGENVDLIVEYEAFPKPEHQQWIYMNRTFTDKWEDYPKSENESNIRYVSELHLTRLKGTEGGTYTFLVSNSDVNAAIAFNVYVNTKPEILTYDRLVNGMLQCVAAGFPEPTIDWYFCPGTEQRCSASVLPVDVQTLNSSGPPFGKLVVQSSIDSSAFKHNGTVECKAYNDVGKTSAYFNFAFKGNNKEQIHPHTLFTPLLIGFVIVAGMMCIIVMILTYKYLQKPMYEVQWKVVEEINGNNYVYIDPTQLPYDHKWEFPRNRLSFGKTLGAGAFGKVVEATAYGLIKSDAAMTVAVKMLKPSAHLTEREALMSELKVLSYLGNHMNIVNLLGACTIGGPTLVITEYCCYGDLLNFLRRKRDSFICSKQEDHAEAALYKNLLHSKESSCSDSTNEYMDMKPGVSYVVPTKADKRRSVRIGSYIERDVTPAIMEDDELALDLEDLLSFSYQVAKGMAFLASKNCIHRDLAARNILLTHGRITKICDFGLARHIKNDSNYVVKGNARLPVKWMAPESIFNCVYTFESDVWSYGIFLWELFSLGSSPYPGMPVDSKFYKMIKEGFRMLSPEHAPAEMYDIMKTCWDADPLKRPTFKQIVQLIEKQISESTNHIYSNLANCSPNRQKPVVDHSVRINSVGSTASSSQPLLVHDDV

[22] = target: panel of 468 diverse kinases (Homo sapiens, UniProt P06213); conditions: INSR; 1000 nM; read-out: Percent Control
[23] = target: panel of 468 diverse kinases (Homo sapiens, UniProt P51956); conditions: NEK3; 1000 nM; read-out: Percent Control
[24] = target: panel of 468 diverse kinases (Homo sapiens, UniProt Q12866); conditions: MERTK; 1000 nM; read-out: Percent Control
[25] = target: panel of 468 diverse kinases (Homo sapiens, UniProt P51817); conditions: PRKX; 1000 nM; read-out: Percent Control
[26] = target: panel of 468 diverse kinases (Homo sapiens, UniProt Q13464); conditions: ROCK1; 1000 nM; read-out: Percent Control
Chain of panel of 468 diverse kinases (Homo sapiens, UniProt Q13464) (Q13464 2-1354 limits assumed): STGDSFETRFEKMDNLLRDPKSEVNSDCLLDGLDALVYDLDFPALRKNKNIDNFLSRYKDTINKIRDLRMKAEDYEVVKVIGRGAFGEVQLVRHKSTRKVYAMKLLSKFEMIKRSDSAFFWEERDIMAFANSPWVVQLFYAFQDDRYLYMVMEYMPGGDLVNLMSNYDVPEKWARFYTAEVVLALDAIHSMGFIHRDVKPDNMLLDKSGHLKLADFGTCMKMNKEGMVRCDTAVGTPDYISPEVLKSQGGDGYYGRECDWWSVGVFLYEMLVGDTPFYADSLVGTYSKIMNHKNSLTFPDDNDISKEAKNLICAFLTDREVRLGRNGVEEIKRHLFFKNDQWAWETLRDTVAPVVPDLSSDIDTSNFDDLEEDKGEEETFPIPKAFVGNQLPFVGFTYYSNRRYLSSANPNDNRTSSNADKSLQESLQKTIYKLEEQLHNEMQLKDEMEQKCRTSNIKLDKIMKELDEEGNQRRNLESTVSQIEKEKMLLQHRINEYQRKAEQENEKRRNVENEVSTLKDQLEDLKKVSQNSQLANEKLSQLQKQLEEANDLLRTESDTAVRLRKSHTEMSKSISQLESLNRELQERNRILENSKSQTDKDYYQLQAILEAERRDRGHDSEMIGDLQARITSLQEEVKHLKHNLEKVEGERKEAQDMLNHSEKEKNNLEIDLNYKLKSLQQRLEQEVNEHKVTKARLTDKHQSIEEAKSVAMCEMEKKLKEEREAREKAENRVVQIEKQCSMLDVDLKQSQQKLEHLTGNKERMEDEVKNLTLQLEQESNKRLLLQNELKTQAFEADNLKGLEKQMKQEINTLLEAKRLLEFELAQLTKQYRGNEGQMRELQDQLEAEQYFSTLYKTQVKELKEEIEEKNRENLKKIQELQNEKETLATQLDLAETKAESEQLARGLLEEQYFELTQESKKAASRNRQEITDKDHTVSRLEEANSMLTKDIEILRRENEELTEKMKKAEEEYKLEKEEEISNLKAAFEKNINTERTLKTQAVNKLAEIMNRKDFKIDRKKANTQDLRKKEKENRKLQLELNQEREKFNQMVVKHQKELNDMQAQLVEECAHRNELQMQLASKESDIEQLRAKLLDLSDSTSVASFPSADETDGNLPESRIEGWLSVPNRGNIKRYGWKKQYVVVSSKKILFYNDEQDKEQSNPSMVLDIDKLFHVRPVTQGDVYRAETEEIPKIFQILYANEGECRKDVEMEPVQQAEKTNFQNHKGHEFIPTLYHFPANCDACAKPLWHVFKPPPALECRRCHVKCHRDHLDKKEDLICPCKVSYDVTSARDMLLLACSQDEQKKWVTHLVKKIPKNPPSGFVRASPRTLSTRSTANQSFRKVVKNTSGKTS

[27] = target: panel of 468 diverse kinases (Homo sapiens, UniProt P53350); conditions: PLK1; 1000 nM; read-out: Percent Control
Chain of panel of 468 diverse kinases (Homo sapiens, UniProt P53350) (P53350 2-603 limits assumed): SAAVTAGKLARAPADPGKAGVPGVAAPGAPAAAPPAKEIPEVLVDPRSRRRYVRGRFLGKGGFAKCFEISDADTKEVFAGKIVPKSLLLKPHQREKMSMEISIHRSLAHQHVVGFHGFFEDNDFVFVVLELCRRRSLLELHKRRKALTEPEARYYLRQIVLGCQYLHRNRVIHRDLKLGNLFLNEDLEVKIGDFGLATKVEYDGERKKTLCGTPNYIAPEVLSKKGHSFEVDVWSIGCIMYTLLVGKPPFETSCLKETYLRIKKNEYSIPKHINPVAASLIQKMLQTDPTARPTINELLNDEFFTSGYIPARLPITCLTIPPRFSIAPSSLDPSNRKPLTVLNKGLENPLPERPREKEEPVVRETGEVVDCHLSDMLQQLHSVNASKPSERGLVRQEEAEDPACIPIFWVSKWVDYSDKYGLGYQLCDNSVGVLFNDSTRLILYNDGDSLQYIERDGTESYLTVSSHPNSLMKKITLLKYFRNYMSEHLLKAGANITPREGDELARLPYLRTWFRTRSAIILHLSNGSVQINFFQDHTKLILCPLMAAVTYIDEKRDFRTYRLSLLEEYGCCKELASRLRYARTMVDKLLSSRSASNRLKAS

[28] = target: panel of 468 diverse kinases (Homo sapiens, UniProt O43353); conditions: RIPK2; 1000 nM; read-out: Percent Control
[29] = target: panel of 468 diverse kinases (Homo sapiens, UniProt Q15746); conditions: MYLK; 1000 nM; read-out: Percent Control
[30] = target: panel of 468 diverse kinases (Homo sapiens, UniProt P42345); conditions: MTOR; 1000 nM; read-out: Percent Control
[31] = target: panel of 468 diverse kinases (Homo sapiens, UniProt Q12852); conditions: DLK; 1000 nM; read-out: Percent Control
[32] = target: panel of 468 diverse kinases (Homo sapiens, UniProt P41743); conditions: PRKCI; 1000 nM; read-out: Percent Control
Chain of panel of 468 diverse kinases (Homo sapiens, UniProt P41743) (P41743 2-596 limits assumed): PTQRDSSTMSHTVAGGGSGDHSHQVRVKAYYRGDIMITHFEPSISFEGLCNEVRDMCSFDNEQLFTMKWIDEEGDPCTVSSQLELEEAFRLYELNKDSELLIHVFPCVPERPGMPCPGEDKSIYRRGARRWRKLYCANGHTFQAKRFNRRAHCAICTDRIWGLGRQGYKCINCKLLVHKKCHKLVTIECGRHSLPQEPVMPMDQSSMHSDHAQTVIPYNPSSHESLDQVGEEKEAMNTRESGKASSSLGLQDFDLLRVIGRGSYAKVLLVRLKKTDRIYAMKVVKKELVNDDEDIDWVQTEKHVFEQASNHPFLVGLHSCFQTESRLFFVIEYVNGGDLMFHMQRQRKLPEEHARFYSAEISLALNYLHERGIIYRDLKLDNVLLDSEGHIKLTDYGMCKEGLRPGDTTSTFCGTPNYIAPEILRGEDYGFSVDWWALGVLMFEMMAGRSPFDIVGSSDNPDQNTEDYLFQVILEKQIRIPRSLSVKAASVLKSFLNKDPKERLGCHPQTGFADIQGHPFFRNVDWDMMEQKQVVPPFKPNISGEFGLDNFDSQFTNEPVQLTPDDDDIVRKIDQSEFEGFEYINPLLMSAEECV

Chain of panel of 468 diverse kinases (Plasmodium falciparum, UniProt P62344) (P62344 2-524 limits assumed): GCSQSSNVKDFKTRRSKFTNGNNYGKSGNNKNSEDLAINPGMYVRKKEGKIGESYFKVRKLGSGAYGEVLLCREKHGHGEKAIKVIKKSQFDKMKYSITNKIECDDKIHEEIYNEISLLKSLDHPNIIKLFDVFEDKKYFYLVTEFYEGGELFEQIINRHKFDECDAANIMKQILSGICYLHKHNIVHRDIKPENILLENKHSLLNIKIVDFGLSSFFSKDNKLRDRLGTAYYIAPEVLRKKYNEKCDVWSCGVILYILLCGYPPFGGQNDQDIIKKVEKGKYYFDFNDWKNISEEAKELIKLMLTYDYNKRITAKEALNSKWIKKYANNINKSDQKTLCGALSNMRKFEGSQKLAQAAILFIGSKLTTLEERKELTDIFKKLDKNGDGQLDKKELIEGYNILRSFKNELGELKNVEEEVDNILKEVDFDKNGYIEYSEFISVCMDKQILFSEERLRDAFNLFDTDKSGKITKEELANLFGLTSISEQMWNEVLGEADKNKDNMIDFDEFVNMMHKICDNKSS

COc1cc2nc(NC3CC3)nc(NC3CCN(C(C)C)CC3)c2cc1OC [Formula IV]
remaining activity at 1 µM [1]: 56% | remaining activity at 1 µM [2]: 91% | remaining activity at 1 µM [3]: 90% | remaining activity at 1 µM [4]: 100% | remaining activity at 1 µM [5]: 93% | remaining activity at 1 µM [6]: 32% | remaining activity at 1 µM [7]: 100% | remaining activity at 1 µM [8]: 98% | remaining activity at 1 µM [9]: 100% | remaining activity at 1 µM [10]: 86% | remaining activity at 1 µM [11]: 72% | remaining activity at 1 µM [12]: 100% | remaining activity at 1 µM [13]: 54% | remaining activity at 1 µM [14]: 100% | remaining activity at 1 µM [15]: 100% | remaining activity at 1 µM [16]: 89% | remaining activity at 1 µM [17]: 100% | remaining activity at 1 µM [18]: 78% | remaining activity at 1 µM [19]: 100% | remaining activity at 1 µM [20]: 100% | remaining activity at 1 µM [21]: 78% | remaining activity at 1 µM [22]: 57% | remaining activity at 1 µM [23]: 50% | remaining activity at 1 µM [24]: 70% | remaining activity at 1 µM [25]: 100% | remaining activity at 1 µM [26]: 45% | remaining activity at 1 µM [27]: 70% | remaining activity at 1 µM [28]: 94% | remaining activity at 1 µM [29]: 49% | remaining activity at 1 µM [30]: 87% | remaining activity at 1 µM [31]: 62% | remaining activity at 1 µM [32]: 71%
